# Measured values taken from BindingDB's records for doi:10.1016/j.jmb.2006.12.004 (University of Marburg, 2007).
# pIC50: −log10 of the molar value.
# Target: Aldo-keto reductase family 1 member B1 (Homo sapiens, UniProt P15121)
# Experiment: Enzyme Inhibition Assay
# Conditions: pH 6.2; 25 °C
# Protocol: The in vitro inhibitory activity of the candidate molecules was determined by recording the decrease of the NADPH absorbance upon enzymatic reduction of […]. The absorbance at 340 nm was monitored with a BMG plate reader. The program GraFit (Version 4.0) was used for fitting the IC50 values.
row,pIC50,SMILES
1,6.28,O=C(O)CCCc1nc(-c2cccc([N+](=O)[O-])c2)[n-][o+]1 [Ligand 1]
2,5.39,"O=C(O)CSc1nnc(-c2ccc([N+](=O)[O-])o2)o1 [2-{[5-(5-nitrofuran-2-yl)-1,3,4-oxadiazol-2-yl]sulfanyl}acetic acid]"
3,4.91,"O=C(O)CCCc1nc(-c2ccccn2)no1 [4-[3-(pyridin-2-yl)-1,2,4-oxadiazol-5-yl]butanoic acid]"
4,4.75,O=C(O)CCCc1nc(-c2ccc(Cl)cc2)no1 [Ligand 8]
